The source of these data is patent US20240400584A1, “COMPOUNDS AND METHODS FOR MODULATING SPLICING” (REMIX THERAPEUTICS INC., priority 2021, published 2024).

Broadly, the IC50 is the concentration that inhibits the measured activity by half. Broadly, the AC50 is the concentration giving half of the maximal activity seen. Read a low AC50 as activity at low concentration.

A value given as a limit tells only on which side of the number the result lay.

For one assay, the system named is Target C. The experiment in a line: Gene panel canonical junction qPCR assay, Target C CJ mRNA (Table 7). Format: cell-based, human. The note with it: Homo sapiens, read-out: Target C CJ mRNA decrease IC50. The method in brief:
(§1)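 A673 or K562 cells treated with compound; canonical exon-junction mRNA measured by RT-qPCR with junction-spanning primers/probe, normalised to GAPDH, GUSB or PPIA and DMSO (ΔΔCt, RQ). Percentage response set from fixed ΔCt assay windows, fitted to a 4-parameter logistic; IC50 is concentration giving 50% CJ decrease.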
In general terms: In qPCR the cycle at which signal appears reflects the starting amount.

Assay [1] relates to HTT. The experiment in a line: Gene panel canonical junction qPCR assay, HTT CJ mRNA (Table 7). Type of assay: cell-based, human. Particulars: Homo sapiens, read-out: HTT CJ mRNA decrease IC50. The method in brief:
as §1

The subject of assay [2] is MYB. The experiment in a line: RT-qPCR splicing assay, MYB AJ/CJ mRNA. Type of assay: cell-based. The note with it: Homo sapiens, A673 or K562 cells, 24 hours; for IC50: decrease in canonical junction mRNA; for AC50: increase in alternative junction mRNA. The essentials: (§2)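 Splicing switch scored as change in CJ and AJ isoform levels, by RT-qPCR on lysates of A673 or K562 cells dosed 24 h (top concentration 10 uM, DMSO at most 0.25%). ΔΔCt relative to DMSO wells was converted to RQ and then to percentage response.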

A further assay deals with SMN2. The experiment in a line: Gene panel canonical junction qPCR assay, SMN2 CJ mRNA (Table 7). Format: cell-based. Particulars: Homo sapiens, read-out: SMN2 CJ mRNA decrease IC50. The essentials:
as §1

Assay [3] deals with MYB. The experiment in a line: Gene panel canonical junction qPCR assay, MYB CJ mRNA (Table 7). Type of assay: cell-based. The note with it: Homo sapiens, read-out: MYB CJ mRNA decrease IC50. The essentials:
as §1

Assay [4] deals with HTT. The experiment in a line: RT-qPCR splicing assay, HTT AJ/CJ mRNA. Format: cell-based, human. Particulars: Homo sapiens, A673 or K562 cells; for IC50: decrease in canonical junction mRNA; for AC50: increase in alternative junction mRNA. The essentials:
as §2

For `CC1(C)CC(Oc2ccc3c(n2)OCc2cc(-c4cn[nH]c4)ccc2-3)CC(C)(C)N1` [Compound 219, 8-(1H-pyrazol-4-yl)-3-((2,2,6,6-tetramethylpiperidin-4-yl)oxy)-6H-isochromeno [3,4-b] pyridine], the IC50 in the assay on Target C, in the assay with HTT [1], in the assay on MYB [2], with SMN2, in the assay on MYB [3] and in the assay on HTT [4] (24 h) was 0.1 to 1 µM each time. Moreover, the results for the AC50 with MYB [2] and in the assay with HTT [4] (24 h) were > 10 µM and 0.1 to 1 µM, respectively.

For the molecule `CN1CCC12CCN(c1ccc3c(n1)OCc1cc(-c4cn[nH]c4)ccc1-3)C2` (centres unmarked) [Compound 220, 3-(1-methyl-1,6-diazaspiro[3.4]octan-6-yl)-8-(1H-pyrazol-4-yl)-6H-isochromeno[3,4-b]pyridine], the IC50 in the assay on Target C is 1 to 10 µM; in the assay on HTT [1], 0.1 to 1 µM; in the assay on MYB [2] it was 0.1 to 1 µM; in the assay on SMN2, 0.1 to 1 µM; in the assay on MYB [3], 0.1 to 1 µM; in the assay with HTT [4] (24 h), 0.1 to 1 µM. Further, the AC50 in the assay with MYB [2] and in the assay on HTT [4] (24 h) was 0.1 to 1 µM in each case.

For `c1cc2c(cc1-c1cn[nH]c1)COc1nc(N3CCC34CCNCC4)ccc1-2` [Compound 221, 1-[8-(1H-pyrazol-4-yl)-6H-isochromeno[3,4-b]pyridin-3-yl]-1,7-diazaspiro[3.5]nonane 2,2,2-trifluoroacetate], the IC50 was > 10 µM in the assay on Target C; > 10 µM in the assay with HTT [1]; 1 to 10 µM in the assay with MYB [2]; > 10 µM with SMN2; 1 to 10 µM with MYB [3]; > 10 µM with HTT [4] (24 h). For the same molecule, the AC50 with MYB [2] and in the assay on HTT [4] (24 h) was > 10 µM each time.

Consider `CN1CCCC2(CCN2c2ccc3c(n2)OCc2cc(-c4cn[nH]c4)ccc2-3)C1` (centres unmarked) [Compound 222, 6-methyl-1-[8-(1H-pyrazol-4-yl)-6H-isochromeno[3,4-b]pyridin-3-yl]-1,6-diazaspiro[3.5]nonane], for which the IC50 with Target C, in the assay on HTT [1], in the assay with MYB [2], in the assay on SMN2, in the assay with MYB [3] and in the assay with HTT [4] (24 h) was > 10 µM each time. Moreover, the AC50 in the assay with MYB [2] and with HTT [4] (24 h) was > 10 µM each time.

`COc1cc(-c2ccc3c(c2)COc2nc(O[C@@H]4C[C@H]5CC[C@@H](C4)N5)ccc2-3)cnn1` [Compound 223, (1R,3R,5S)-3-{[8-(6-methoxypyridazin-4-yl)-6H-isochromeno[3,4-b]pyridin-3-yl]oxy}-8-azabicyclo[3.2.1]octane]: the IC50 was < 0.1 µM in the assay with Target C; < 0.1 µM in the assay with HTT [1]; 0.1 to 1 µM with MYB [2]; < 0.1 µM with SMN2; 0.1 to 1 µM in the assay with MYB [3]; < 0.1 µM in the assay with HTT [4] (24 h). Further, the AC50 in the assay with MYB [2] and with HTT [4] (24 h) was < 0.1 µM in each case.

Consider `FC1(F)CC2CC(Oc3ccc4c(n3)OCc3cc(-c5cn[nH]c5)ccc3-4)CC1N2` (centres unmarked) [Compound 224, 6,6-difluoro-3-{[8-(1H-pyrazol-4-yl)-6H-isochromeno[3,4-b]pyridin-3-yl]oxy}-8-azabicyclo[3.2.1]octane], for which the IC50 was > 10 µM with Target C; 1 to 10 µM in the assay on HTT [1]; > 10 µM in the assay with MYB [2]; 1 to 10 µM in the assay with SMN2; > 10 µM in the assay on MYB [3]; 1 to 10 µM with HTT [4] (24 h). The half-maximal activity concentration (AC50) in the assay on MYB [2] is > 10 µM; with HTT [4] (24 h), 1 to 10 µM.

As for `COc1cc(-c2ccc3c(c2)COc2nc(OC4CC5CC(F)(F)C(C4)N5)ccc2-3)cnn1` (centres unmarked) [Compound 225, 6,6-difluoro-3-{[8-(6-methoxypyridazin-4-yl)-6H-isochromeno[3,4-b]pyridin-3-yl]oxy}-8-azabicyclo[3.2.1]octane], the IC50 with Target C was > 10 µM; with HTT [1] it was 0.1 to 1 µM; with MYB [2], > 10 µM; with SMN2, 1 to 10 µM; in the assay with MYB [3], > 10 µM; with HTT [4] (24 h), 0.1 to 1 µM. The AC50 in the assay on MYB [2] is > 10 µM; with HTT [4] (24 h) it was 1 to 10 µM.

As for `COc1cc(-c2ccc3c(c2)COc2nc(OC4CC(C)(C)NC(C)(C)C4)ccc2-3)cnn1` [Compound 226, 3-methoxy-5-{3-[(2,2,6,6-tetramethylpiperidin-4-yl)oxy]-6H-isochromeno[3,4-b]pyridin-8-yl}pyridazine], the IC50 is 0.1 to 1 µM with Target C; < 0.1 µM with HTT [1]; 0.1 to 1 µM in the assay with MYB [2]; < 0.1 µM in the assay with SMN2; 0.1 to 1 µM with MYB [3]; < 0.1 µM in the assay on HTT [4] (24 h). The AC50 was > 10 µM in the assay on MYB [2] and < 0.1 µM in the assay on HTT [4] (24 h).

`CN1CCC2(CC1)CCN2c1ccc2c(n1)OCc1cc(-c3cn[nH]c3)ccc1-2` [Compound 227, 7-methyl-1-[8-(1H-pyrazol-4-yl)-6H-isochromeno[3,4-b]pyridin-3-yl]-1,7-diazaspiro[3.5]nonane]: the IC50 in the assay on Target C, in the assay with HTT [1], in the assay on MYB [2], in the assay on SMN2, in the assay on MYB [3] and with HTT [4] (24 h) was > 10 µM in each case. Also, the AC50 in the assay on MYB [2] and with HTT [4] (24 h) was > 10 µM throughout.

Turning to `C[C@]12CC[C@](C)(C[C@@H](Oc3ccc4c(n3)OCc3cc(-n5cccn5)ccc3-4)C1)N2` [Compound 228], the IC50 in the assay on Target C lay in the range of 1 to 10 µM; with HTT [1] it was 0.1 to 1 µM; in the assay with MYB [2] it was 1 to 10 µM; with SMN2, 0.1 to 1 µM; in the assay with MYB [3] it was 1 to 10 µM; with HTT [4] (24 h), 0.1 to 1 µM. Besides, the AC50 in the assay on MYB [2] and with HTT [4] (24 h) was 1 to 10 µM in each case.

For the molecule `O=c1cc(-c2ccc3c(c2)COc2nc(OC4CC5CC(F)(F)C(C4)N5)ccc2-3)cc[nH]1` (centres unmarked) [Compound 229], the IC50 in the assay on Target C, in the assay on HTT [1], with MYB [2], in the assay on SMN2, in the assay with MYB [3] and in the assay on HTT [4] (24 hours) was > 10 µM each time. In addition, the AC50 in the assay with MYB [2] and with HTT [4] (24 hours) was > 10 µM throughout.

As to `Fc1ccn(-c2ccc3c(c2)COc2nc(O[C@@H]4C[C@H]5CC[C@@H](C4)N5)ccc2-3)n1` [Compound 230, (1R,3R,5S)-3-{[8-(3-fluoropyrazol-1-yl)-6H-isochromeno[3,4-b]pyridin-3-yl]oxy}-8-azabicyclo[3.2.1]octane], the IC50 in the assay with Target C was in the range of 1 to 10 µM; in the assay with HTT [1], 0.1 to 1 µM; in the assay on MYB [2] it was 0.1 to 1 µM; with SMN2, 0.1 to 1 µM; in the assay on MYB [3] it was 0.1 to 1 µM; with HTT [4] (24 h), 0.1 to 1 µM. Besides, the AC50 in the assay with MYB [2] lay in the range of 1 to 10 µM; in the assay on HTT [4] (24 h), 0.1 to 1 µM.

As for `COc1cc(-c2ccc3c(c2)COc2nc(N(C)C4CC(C)(C)NC(C)(C)C4)ccc2-3)cnn1` [Compound 231, N-[8-(6-methoxypyridazin-4-yl)-6H-isochromeno[3,4-b]pyridin-3-yl]-N,2,2,6,6-pentamethylpiperidin-4-amine], the IC50 is 0.1 to 1 µM in the assay on Target C; 0.1 to 1 µM with HTT [1]; 0.1 to 1 µM with MYB [2]; < 0.1 µM with SMN2; 0.1 to 1 µM in the assay on MYB [3]; 0.1 to 1 µM with HTT [4] (24 h). Also, the AC50 with MYB [2] is 1 to 10 µM; with HTT [4] (24 h), 0.1 to 1 µM.

Turning to `COc1cc(-c2ccc3c(c2)COc2nc(N(C)[C@@H]4C[C@H]5COC[C@@H](C4)N5)ccc2-3)cnn1` [Compound 232, (1R,5S,7r)-N-[8-(6-methoxypyridazin-4-yl)-6H-isochromeno[3,4-b]pyridin-3-yl]-N-methyl-3-oxa-9-azabicyclo[3.3.1]nonan-7-amine], the IC50 was < 0.1 µM in the assay on Target C; < 0.1 µM in the assay on HTT [1]; 0.1 to 1 µM in the assay with MYB [2]; < 0.1 µM with SMN2; 0.1 to 1 µM in the assay on MYB [3]; < 0.1 µM in the assay with HTT [4] (24 h). The AC50 in the assay with MYB [2] and in the assay on HTT [4] (24 h) was < 0.1 µM each time.

For `CN(c1ccc2c(n1)OCc1cc(-c3cn[nH]c3)c(F)cc1-2)C1CC(C)(C)NC(C)(C)C1` [Compound 233, 9-fluoro-N-methyl-8-(1H-pyrazol-4-yl)-N-(2,2,6,6-tetramethylpiperidin-4-yl)-6H-isochromeno[3,4-b]pyridin-3-amine], the IC50 was 0.1 to 1 µM with Target C; < 0.1 µM in the assay on HTT [1]; 0.1 to 1 µM with MYB [2]; < 0.1 µM in the assay with SMN2; 0.1 to 1 µM with MYB [3]; < 0.1 µM with HTT [4] (24 h). The AC50 fell in the range of 1 to 10 µM in the assay with MYB [2] and 0.1 to 1 µM with HTT [4] (24 h).

Turning to `CC1(C)CC(Oc2ccc3c(n2)OCc2cc(-c4cn[nH]c4)c(F)cc2-3)CC(C)(C)N1` [Compound 234], the IC50 with Target C is 0.1 to 1 µM; in the assay with HTT [1] it was < 0.1 µM; with MYB [2], 0.1 to 1 µM; in the assay on SMN2, < 0.1 µM; with MYB [3] it was 0.1 to 1 µM; in the assay on HTT [4] (24 h) it was < 0.1 µM. Moreover, the AC50 with MYB [2] was 0.1 to 1 µM; in the assay on HTT [4] (24 h), < 0.1 µM.
